Values quoted from earlier work in US12285459B2, “Saposin-A derived peptides and uses thereof” (CHILDREN'S MEDICAL CENTER CORPORATION, priority 2011, dated 2025).

Test system: VEGF
Details: cited from earlier work

For `CN(C)c1ccc(/C=C2\C(=O)Nc3ccccc32)cc1` [SU 4312], the vessel formation is listed as “blocked”.
